Test results: patent US8741932B2, “Imidazopyridine derivatives” (Piramal Enterprises Limited, priority 2009, dated 2014)

Tests used:
[1] = test system: A2780; assay: Cytotoxicity assay (propidium iodide), A2780; type: cell-based; conditions: Homo sapiens; A2780 (C3a, ovarian); 48 hours
Method: (§4) Cells from cell lines as mentioned in the table given below were seeded at a density of 3000 cells/well in a white opaque 96-well plate. Following incubation at 37° C./5% CO2 for a period of 18-24 hours, the cells were treated with various concentrations (stock solution was prepared in DMSO and subsequent dilutions were made in media as per ATCC guidelines) of the representative compounds of present invention (refer table 3) for a period of 48 hours. At the end of treatment, the spent culture medium was discarded, the cells were washed with 1×PBS and 200 μl of 7 μg/ml propidium iodide was added to each well. The plates were frozen at −70° C. for at least 24 hours. For analysis, the plates were brought to RT, allowed to thaw and were read in PolarStar fluorimeter with the fluorescence setting. The percentage of viable cells in the non treated set of wells was considered to be 100 and the percentage viability following treatment was calculated accordingly. IC50 values were calculated from graphs plotted using these percentages.

[2] = test system: IL-8; assay: Synovial tissue assay, IL-8; type: cell-based; conditions: Homo sapiens; synovial tissue cells from rheumatoid arthritis patients, 16 hours
Method: (§1) The assay was designed as in the reference, Lancet, 2(8657), 244-7, Jul.
(§2) Stock Solution: Compounds of the present invention were dissolved in DMSO to obtain a stock solution of 20 mM.
(§3) Synovial tissue was obtained from rheumatoid arthritis patients undergoing knee replacement surgery. The tissue was minced into small pieces and digested in RPMI medium containing 100 U/ml penicillin-G, 100 μg/ml streptomycin, 50 ng/ml amphotericin B (GIBCO; USA), 1.33 mg/ml collagenase Type I (Worthington Biochemical Corporation, New Jersey), 0.5 μg/ml DNAse Type I (Sigma Aldrich; St. Louis, Mo.) and 8.33 U/ml heparin (Biological E. Limited, India) for 3 hours at 37° C., 5% CO2. The digested tissue was filtered through a membrane (mesh size 70 micron; Sigma Aldrich). Subsequently, the cells were washed 3 times and resuspended in complete medium (RPMI supplemented with 5% FBS and 5% human serum-AB+) at a concentration of 1×10^6 cells/ml. All cell washes in this assay were performed using Rosewall Park Memorial Institute (RPMI)-1640 medium (JRH; Australia). For the experiment, 100 μl of cell suspension was added to the wells of a 96-well culture plate. Following cell plating, 100 μl of the culture medium and 1 μl of various concentrations (0.01, 0.03, 0.1, 0.3, 1, 3, 10, 30 and 100 μM) of the compounds of present invention dissolved in DMSO were added to the cells. The final concentration of DMSO was adjusted to 0.5%. For experimental purposes, 1 μl of […] concentrated solution of the compounds of present invention were dissolved in 200 μl cell suspension to achieve a final concentration of 0.01, 0.03, 0.1, 0.3, 1, 3, 10, 30 and 100 μM. The vehicle (0.5% DMSO) was used as control. 10 μM dexamethasone (Sigma Aldrich) or 1 μM 7-hydroxyfluorinide (7HF) were used as standards for the experiments. The plates were incubated for 16 hours at 37° C., 5% CO2. Subsequently, the supernatants were harvested and stored at −70° C. The amounts of TNF-α, IL-6 and interleukin-8 (IL-8) in the supernatants were assayed using OptiEIA ELISA sets, (BD BioSciences Pharmingen). The protocol followed was as per manufacturers instructions. […] The cytotoxicity of test compounds in synovial cells was assessed by MTS assay. Absorbance was measured at 490 nm. Percent cytotoxicity was calculated by the equation: % Cytotoxicity=(A−B)/A×100 where, A is the absorbance of cells treated with DMSO alone and B is the absorbance of cells treated with the test article.

[3] = test system: PANC 1; assay: Cytotoxicity assay (propidium iodide), PANC 1; type: cell-based; conditions: Homo sapiens; PANC 1 (C5a, pancreatic); 48 hours
Method: as §4

[4] = test system: TNF-α; assay: Human monocyte assay, LPS-stimulated TNF-α; type: cell-based; conditions: human monocytes, 1 μg/ml LPS, 5 hours
Outline: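 Adherent human PBMC-derived monocytes (2×10^4/well) were cultured 48 h, preincubated 30 min with compound or 0.5% DMSO, then stimulated with 1 μg/ml E. coli LPS for 5 h at 37° C. TNF-α and IL-6 in supernatants were measured by ELISA.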

[5] = test system: OVCAR 3; assay: Cytotoxicity assay (propidium iodide), OVCAR 3; type: cell-based; conditions: Homo sapiens; OVCAR 3 (C3c, ovarian); 48 hours
[6] = test system: FaDu; assay: Cytotoxicity assay (propidium iodide), FaDu; type: cell-based; conditions: Homo sapiens; FaDu (C11a, hypopharyngeal); 48 hours
Method: as §4

[7] = test system: TNF-α; assay: Synovial tissue assay, TNF-α; type: cell-based; conditions: Homo sapiens; synovial tissue cells from rheumatoid arthritis patients, 16 hours
Method: as §1, §2, §3

[8] = test system: G361; assay: Cytotoxicity assay (propidium iodide), G361; type: cell-based; conditions: G-361; G361 (C9a, human melanoma); 48 hours
Method: as §4

[9] = test system: BT 549; assay: Cytotoxicity assay (propidium iodide), BT 549; type: cell-based; conditions: Homo sapiens; BT 549 (C6d, breast); 48 hours
Method: as §4

[10] = test system: PC3; assay: Cytotoxicity assay (propidium iodide), PC3; conditions: Homo sapiens, PC-3, 48 h, read-out: IC50 cytotoxicity
Method: as §4

[11] = test system: RPMI 8226; assay: Cytotoxicity assay (propidium iodide), RPMI 8226; type: cell-based; conditions: Homo sapiens; RPMI 8226 (C7b, multiple myeloma); 48 hours
Method: as §4

[12] = test system: MCF7; assay: Cytotoxicity assay (propidium iodide), MCF7; type: cell-based; conditions: Homo sapiens; MCF7 (C6c, breast); 48 hours
Method: as §4

[13] = test system: MDA MB 468; assay: Cytotoxicity assay (propidium iodide), MDA MB 468; type: cell-based; conditions: Homo sapiens; MDA MB 468 (C6b, breast); 48 hours
Method: as §4

[14] = test system: U 373; assay: Cytotoxicity assay (propidium iodide), U 373; type: cell-based; conditions: Homo sapiens, U373 MG; U 373 (C8a, glioblastoma); 48 hours
Method: as §4

[15] = test system: H460; assay: Cytotoxicity assay (propidium iodide), H460; type: cell-based; conditions: Homo sapiens, NCI-H460; H460 (C1b, lung); 48 hours
[16] = test system: MDA MB 231; assay: Cytotoxicity assay (propidium iodide), MDA MB 231; type: cell-based; conditions: Homo sapiens; MDA MB 231 (C6a, breast); 48 hours
Method: as §4

[17] = test system: U266B1; assay: Cytotoxicity assay (propidium iodide), U266B1; type: cell-based; conditions: U266B1 (C7a, multiple myeloma); 48 hours
Method: as §4

Row | Structure (SMILES) | IC50 [1] [nM] | IC50 [2] [µM] | IC50 [3] [nM] | IC50 [4] [nM] | IC50 [5] [nM] | IC50 [6] [nM] | IC50 [7] [µM] | IC50 [8] [nM] | IC50 [9] [nM] | IC50 [10] [nM] | IC50 [11] [nM] | IC50 [12] [nM] | IC50 [13] [nM] | IC50 [14] [nM] | IC50 [15] [nM] | IC50 [16] [nM] | IC50 [17] [nM]
1 | CN(N=Cc1cnc2ccc(-c3cccnc3)cn12)S(=O)(=O)c1cccc(F)c1 [Example 5, 3-Fluoro-N-methyl-N′-((6-(pyridine-3-yl)imidazo[1,2-a]pyridine-3-yl)methylene)benzenesulfonohydrazide] | 10 to 5000 | 0.3 to 3 | 10 to 5000 | 1000 to 15000 | 10 to 5000 | 10 to 5000 | 0.01 to 0.3 |  |  |  |  |  |  |  |  |  | 
2 | CN(N=Cc1cnc2ccc(-c3cccnc3)cn12)S(=O)(=O)c1ccc(F)cc1 [Example 6, 4-Fluoro-N-methyl-N′-((6-(pyridine-3-yl)imidazo[1,2-a]pyridine-3-yl)methylene)benzenesulfonohydrazide] | 10 to 5000 | 0.3 to 3 | 10 to 5000 | 1 to 1000 | 10 to 5000 | 10 to 5000 | 0.01 to 0.3 |  |  |  |  |  |  |  |  |  | 
3 | CN(N=Cc1cnc2ccc(-c3cccnc3)cn12)S(=O)(=O)c1cc(F)cc(F)c1 [Example 16, 3,5-Difluoro-N-methyl-N′-((6-(pyridine-3-yl)imidazo[1,2-a]pyridine-3-yl)methylene) benzenesulfonohydrazide] |  | 0.3 to 3 |  | 1 to 1000 |  |  | 0.01 to 0.3 |  |  |  |  |  |  |  |  |  | 
4 | Cc1ccc(F)cc1S(=O)(=O)N(C)N=Cc1cnc2ccc(-c3cccnc3)cn12 [Example 21, 5-Fluoro-N, 2-dimethyl-N′-((6-(pyridine-3-yl)imidazo[1,2-a]pyridine-3-yl)methylene) benzenesulfonohydrazide] | 10 to 5000 | 0.01 to 0.3 | 10 to 5000 | 1 to 1000 | 10 to 5000 |  | 0.01 to 0.3 | 10 to 5000 | 10 to 5000 | 10 to 5000 | 10 to 5000 | 10 to 5000 | 10 to 5000 | 10 to 5000 | 10 to 5000 | 10 to 5000 | 10 to 5000
5 | Cc1ccc([N+](=O)[O-])cc1S(=O)(=O)N(C)N=Cc1cnc2ccc(-c3cccnc3)cn12 [Example 25] | 10 to 5000 | 0.3 to 3 | 10 to 5000 |  | 10 to 5000 |  | 0.01 to 0.3 |  | 10 to 5000 | 10 to 5000 |  | 10 to 5000 |  |  | 10 to 5000 | 10 to 5000 | 
